# Reference: ChEMBL document CHEMBL2429805, “Studies toward the development of new silicon-containing building blocks for the direct (18)F-labeling of peptides” (J Med Chem, 2013)
# Key:
# [1] = Half life of the compound in water; type: physicochemical
# [2] = target: T1, Gastrin-releasing peptide receptor (Homo sapiens, UniProt P30550); test: Displacement of [125I]-Tyr4-bombesin from GRP receptor in human PC3 cells; type: cell-based, PC-3
# [3] = target: T1, Gastrin-releasing peptide receptor; test: Displacement of [125I]-Tyr4-bombesin from GRP receptor in human PC3 cells after 1 hr by gamma-counting analysis; type: cell-based, PC-3
# Intestine = test: Biodistribution in intestine of NMRI nude mouse xenografted with human PC3 cells after 120 mins by gamma-counting analysis; type: ADME, organism-based, PC-3; conditions: in vivo, 2 h
# Pancreas = test: Biodistribution in pancreas of NMRI nude mouse xenografted with human PC3 cells after 120 mins by gamma-counting analysis; type: ADME, organism-based, PC-3; conditions: in vivo, 2 h
# Liver = test: Biodistribution in liver of NMRI nude mouse xenografted with human PC3 cells after 120 mins by gamma-counting analysis; type: ADME, organism-based, PC-3; conditions: in vivo, 2 h
# [4] = Ratio of biodistribution in tumor to blood of NMRI nude mouse xenografted with human PC3 cells after 120 mins by gamma-counting analysis; type: ADME, organism-based, PC-3; conditions: tumour, 2 h
# Spleen = test: Biodistribution in spleen of NMRI nude mouse xenografted with human PC3 cells after 120 mins by gamma-counting analysis; type: ADME, organism-based, PC-3; conditions: in vivo, 2 h
# [5] = Lipophilicity, log D of the compound; type: physicochemical; conditions: octanol/water
# Mus musculus [6] = test: Biodistribution in tumor of NMRI nude mouse xenografted with human PC3 cells after 120 mins by gamma-counting analysis; type: ADME, organism-based, Neoplasm, PC-3; conditions: in vivo, 2 h
# Mus musculus [7] = test: Biodistribution in gallbladder of NMRI nude mouse xenografted with human PC3 cells after 120 mins by gamma-counting analysis; type: ADME, organism-based, Gall bladder, PC-3; conditions: in vivo, 2 h
# Blood = test: Biodistribution in blood of NMRI nude mouse xenografted with human PC3 cells after 120 mins by gamma-counting analysis; type: ADME, organism-based, PC-3; conditions: in vivo, 2 h
# Kidney = test: Biodistribution in kidney of NMRI nude mouse xenografted with human PC3 cells after 120 mins by gamma-counting analysis; type: ADME, organism-based, PC-3; conditions: in vivo, 2 h
# [8] = target: T1, Gastrin-releasing peptide receptor; test: Binding affinity to GRP receptor (unknown origin)
# [9] = Drug metabolism in 0.9% NaCl assessed as compound hydrolysis; type: physicochemical
# [10] = Drug metabolism in PBS buffer assessed as compound hydrolysis; type: physicochemical
# T1 sequence (P30550 whole entry): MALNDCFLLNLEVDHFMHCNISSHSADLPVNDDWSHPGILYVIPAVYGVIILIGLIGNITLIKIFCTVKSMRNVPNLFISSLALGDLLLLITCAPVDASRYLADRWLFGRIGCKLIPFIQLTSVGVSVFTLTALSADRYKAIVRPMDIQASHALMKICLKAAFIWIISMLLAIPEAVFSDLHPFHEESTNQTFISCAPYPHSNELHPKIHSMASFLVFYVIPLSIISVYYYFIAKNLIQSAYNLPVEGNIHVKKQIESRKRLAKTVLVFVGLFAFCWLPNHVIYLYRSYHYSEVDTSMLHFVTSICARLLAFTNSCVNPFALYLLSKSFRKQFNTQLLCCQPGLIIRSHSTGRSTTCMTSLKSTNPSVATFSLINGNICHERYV
smiles,measurement,setting,value
CC(C)(C)[Si](F)(CCO)C(C)(C)C,half-life,[1],8 h
CSCC[C@H](NC(=O)[C@H](CC(C)C)NC(=O)[C@H](Cc1cnc[nH]1)NC(=O)CNC(=O)[C@@H](NC(=O)[C@H](C)NC(=O)[C@H](Cc1c[nH]c2ccccc12)NC(=O)[C@H](CCC(N)=O)NC(=O)[C@H](CC(N)=O)NC(=O)CNC(=O)[C@H](CC(C)C)NC(=O)[C@H](CCCCNC(=O)c1ccc(F)cc1)NC(=O)[C@H](CCC(N)=O)NC(=O)[C@@H]1CCC(=O)N1)C(C)C)C(N)=O,IC50,[2],5.3 nM
CC(C)C[C@H](NC(=O)C[C@H](O)[C@H](CC(C)C)NC(=O)[C@H](Cc1cnc[nH]1)NC(=O)CN(C)C(=O)[C@@H](NC(=O)[C@H](C)NC(=O)[C@H](Cc1c[nH]c2ccccc12)NC(=O)[C@H](CCC(N)=O)NC(=O)CCCCNC(=O)[C@H](CCCNC(=N)N)NC(=O)C(O)C(O)C(=O)NCCc1ccc([Si](F)(C(C)(C)C)C(C)(C)C)cc1)C(C)C)C(N)=O (stereo partly drawn),IC50,[3],23 nM
CC(C)C[C@H](NC(=O)C[C@H](O)[C@H](CC(C)C)NC(=O)[C@H](Cc1cnc[nH]1)NC(=O)CN(C)C(=O)[C@@H](NC(=O)[C@H](C)NC(=O)[C@H](Cc1c[nH]c2ccccc12)NC(=O)[C@H](CCC(N)=O)NC(=O)CCCCNC(=O)[C@H](CCCNC(=N)N)NC(=O)Cc1ccc([Si]([18F])(C(C)(C)C)C(C)(C)C)cc1)C(C)C)C(N)=O,Drug uptake,Intestine,16 % ID/g
same,Drug uptake,Pancreas,4.08 % ID/g
same,Drug uptake,Liver,4.4 % ID/g
same,Ratio,[4],0.95
same,Drug uptake,Spleen,0.46 % ID/g
same,logD,[5],1.3
same,Drug uptake,Mus musculus [6],0.4 % ID/g
same,Drug uptake,Mus musculus [7],146 % ID/g
same,Drug uptake,Blood,0.42 % ID/g
same,Drug uptake,Kidney,1.73 % ID/g
CC(C)C[C@H](NC(=O)C[C@H](O)[C@H](CC(C)C)NC(=O)[C@H](Cc1cnc[nH]1)NC(=O)CN(C)C(=O)[C@@H](NC(=O)[C@H](C)NC(=O)[C@H](Cc1c[nH]c2ccccc12)NC(=O)[C@H](CCC(N)=O)NC(=O)CCCCNC(=O)[C@H](CS(=O)(=O)O)NC(=O)[C@H](CS(=O)(=O)O)NC(=O)Cc1ccc([Si](F)(C(C)(C)C)C(C)(C)C)cc1)C(C)C)C(N)=O,IC50,[3],8.3 nM
CC(C)C[C@H](NC(=O)C[C@H](O)[C@H](CC(C)C)NC(=O)[C@H](Cc1cnc[nH]1)NC(=O)CN(C)C(=O)[C@@H](NC(=O)[C@H](C)NC(=O)[C@H](Cc1c[nH]c2ccccc12)NC(=O)[C@H](CCC(N)=O)NC(=O)CCCCNC(=O)[C@H](CCCNC(=N)N)NC(=O)Cc1ccc([Si](F)(C(C)(C)C)C(C)(C)C)cc1)C(C)C)C(N)=O,IC50,[8],22.9 nM
CC(C)(C)[Si](F)(c1ccc(CC(=O)NCc2ccccc2)cc1)C(C)(C)C,half-life,[1],> 300 h
CC(C)(C)[Si]([18F])(CCn1cc(CC(N)C(=O)O)nn1)C(C)(C)C (stereo not drawn),Drug metabolism,[9],Active
same,Drug metabolism,[10],Active
same,half-life,[1],16 h
CC(C)(C)[Si](F)(CCn1cc(CC(N)C(=O)O)nn1)C(C)(C)C (stereo not drawn),half-life,[1],16 h
CC(C)(C)[Si]([18F])(CCO)C(C)(C)C,Drug metabolism,[9],Active
same,Drug metabolism,[10],Active
same,half-life,[1],8 h
